Laboratory results from patent US20170216251A1, “USE OF (+)-1-(3,4-DICHLOROPHENYL)-3-AZABICYCLO[3.1.0]HEXANE TO TREAT ADDICTIVE AND ALCOHOL-RELATED DISORDERS” (priority 2011, published 2017).
“Also recorded” adds a separate entry of the source.

What was measured:
[1] = tested on: alcohol-preferring (P) rat; experiment: binge operant responding experiment in alcohol-preferring (P) rats; format: in vivo
Experimental: P rats were obtained from the Alcohol Research Center at Indiana University School of Medicine. Male P rats were used in all experiments, and were approximately 4-5 months of age and weighed between 420 and 580 g at the outset. Animals were housed individually at an ambient temperature of 21° C., with a normal 12 hour light/dark cycle. All rats were provided ad libitum access to food and water, except during training for operant self-administration studies, during which rats were fluid deprived 23 hr daily during the first 5 days of the training phase. Thereafter, these animals were maintained on ad libitum food and water. All training and experimental sessions for all subjects took place between 9 a.m. and 5 p.m. […] Deionized water was administered as the control injection. Behavioral testing was conducted in standard operant chambers (Coulbourn Instruments, Allentown, Pa.) equipped with two removable levers and two dipper fluid delivery systems enclosed in sound-attenuated cubicles as previously described (Cook et al., 2004). All dipper presentations provided a 1.5-sec access to a 0.1-ml dipper, followed by a 3-sec time out period. […] Responses and reinforcements were recorded and controlled using the 4.0 Coulbourn […] operant software package. […]

[2] = tested on: high-alcohol preferring (HAP) mouse; experiment: binge operant responding experiment in high-alcohol preferring (HAP) mice; format: in vivo; conditions: intraperitoneal 25, 50 or 75 mg/kg, FIG. 2
Experimental: The efficacy of (+)-1-(3,4-dichlorophenyl)-3-azabicyclo[3.1.0]hexane to reduce alcohol-drinking behavior was evaluated in the genetically selected high-alcohol preferring (HAP) mouse, an animal model for human alcohol abuse. The effects of (+)-1-(3,4-dichlorophenyl)-3-azabicyclo[3.1.0]hexane on HAP mice were examined in a binge operant responding experiment, using standard protocols.
HAP mice were obtained from the Alcohol Research Center at Indiana University School of Medicine. Animals were housed individually at an ambient temperature of 21° C., with a normal 12 hour light/dark cycle. […]
Behavioral testing was conducted in standard operant chambers (Coulbourn Instruments, Allentown, Pa.) equipped with two removable levers and two dipper fluid delivery systems enclosed in sound-attenuated cubicles as previously described (Cook et al., 2004). […] Responses and reinforcements were recorded and controlled using the 4.0 Coulbourn L2T2 operant software package. […]
For the alcohol and sucrose maintained responding studies, (+)-1-(3,4-dichlorophenyl)-3-azabicyclo[3.1.0]hexane [25, 50, or 75 mg/kg] was injected into each HAP mouse, followed by immediate placement in an operant chamber. […] Six HAP mice were evaluated with each concentration of (+)-1-(3,4-dichlorophenyl)-3-azabicyclo[3.1.0]hexane [25, 50, or 75 mg/kg].

[3] = tested on: kidney tubules; conditions: cynomolgus monkeys; Guha et al., 2011; cited from earlier work
[4] = Phase II, compared to placebo; Sepracor Press Release 2009; cited from earlier work
[5] = molecular target: T1, serotonin transporter (Homo sapiens, UniProt P31645); conditions: PET occupancy study at the doses examined; DeLorenzo et al., 2011; cited from earlier work
T1 construct: host or cells: in vivo brain (PET)

[6] = tested on: Parkinson's Disease; conditions: Phase II clinical trial; Rascol et al., 2008; cited from earlier work
[7] = trial for use in weight loss; Astrup et al., 2008; cited from earlier work
[8] = patients with a preexisting cardiovascular condition, FDA News Release 2010, James et al.; cited from earlier work

T1 sequence (P31645 whole entry): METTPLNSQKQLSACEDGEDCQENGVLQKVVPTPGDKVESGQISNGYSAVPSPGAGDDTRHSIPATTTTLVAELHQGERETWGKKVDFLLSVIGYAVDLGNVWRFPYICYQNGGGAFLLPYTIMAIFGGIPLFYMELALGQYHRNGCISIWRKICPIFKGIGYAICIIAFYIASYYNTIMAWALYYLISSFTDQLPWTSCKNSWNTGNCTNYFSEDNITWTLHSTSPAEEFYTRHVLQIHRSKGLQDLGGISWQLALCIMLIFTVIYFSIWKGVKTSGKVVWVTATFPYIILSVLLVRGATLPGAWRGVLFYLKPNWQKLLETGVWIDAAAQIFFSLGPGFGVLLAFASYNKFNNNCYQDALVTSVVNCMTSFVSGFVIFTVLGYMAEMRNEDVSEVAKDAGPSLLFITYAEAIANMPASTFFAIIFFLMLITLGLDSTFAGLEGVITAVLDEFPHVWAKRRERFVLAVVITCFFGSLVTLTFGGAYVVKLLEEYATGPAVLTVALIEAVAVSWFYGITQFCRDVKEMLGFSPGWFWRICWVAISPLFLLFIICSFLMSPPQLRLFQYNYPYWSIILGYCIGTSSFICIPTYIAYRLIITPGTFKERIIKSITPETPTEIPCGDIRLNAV

## Clc1ccc([C@]23CNC[C@H]2C3)cc1Cl [(+)-1-(3,4-dichlorophenyl)-3-azabicyclo[3.1.0]hexane]
[1]; P rats maintained on sucrose water, oral 3.1-50 mg/kg, 90 min operant session, FIG. 1B
  effect on sucrose consumption (sucrose maintained responding): lack of effect
[1]; P rats, oral 3.1, 6.3, 12.5, 25 or 50 mg/kg 25 min before 90 min operant session, EtOH 10% v/v, FR4, FIG. 1A
  effect on ethanol consumption (alcohol maintained responding): demonstrates a dose response; also recorded: decrease in alcohol consumption that was dose-dependent
[2]; HAP mice maintained on sucrose water
  effect on sucrose consumption (control sucrose responding): lack of effect
[2]; HAP mice, 90 min operant session, EtOH 10% v/v, FR4
  effect on alcohol consumption (ethanol responding): demonstrates a dose response; also recorded: dose-dependent decrease in alcohol consumption

## CNC[C@H](c1ccc2ccccc2c1)[C@H](O)c1ccccc1 [PRC200-SS]
[3]
  nephrotoxicity: acute degenerative damage of kidney tubules

## N[C@@H]1CC[C@@H](c2ccc(Cl)c(Cl)c2)c2ccccc21 [SEP-225289]
[4]
  primary efficacy endpoint as antidepressant: did not meet the primary efficacy endpoint compared to placebo
[5]
  serotonin transporter occupancy: too low at the doses examined to produce an antidepressant effect

## CCOC[C@@H]1[C@@H](c2ccc(Cl)c(Cl)c2)C[C@@H]2CC[C@H]1N2C [Tensofensine]
[6]
  efficacy in treatment of Parkinson's Disease: not be efficacious
[7]
  adverse events: gastrointestinal adverse events (dry mouth, nausea, abdominal pain, constipation, diarrhea)

## CC(C)CC(N(C)C)C1(c2ccc(Cl)cc2)CCC1 (stereo not shown) [sibutramine]
[8]
  risk of serious heart events (non-fatal heart attack, non-fatal stroke): significant increase in the risk of serious heart events
